Source: patent US20090247555A1, “5,7-Disubstituted[1,3]Thiazolo[4,5-D]Pyrimidin-2(3H)-One Derivatives 258” (AstraZeneca AB, priority 2008, published 2009)

Columns and labels:
CX3CR1 receptor = target: T1, CX3CR1 receptor (Homo sapiens, UniProt P49238); test: Fractalkine (CX3CR1) GTPgS inhibition assay (96 well); type: biochemical; conditions: CX3CR1 CHO K1 membranes, inhibition of 35S-GTPγS signal generated by EC80 of fractalkine, triplicate
T1 construct: host or cells: CHO K1 cells; membranes prepared in-house
T1 sequence (P49238 1-355): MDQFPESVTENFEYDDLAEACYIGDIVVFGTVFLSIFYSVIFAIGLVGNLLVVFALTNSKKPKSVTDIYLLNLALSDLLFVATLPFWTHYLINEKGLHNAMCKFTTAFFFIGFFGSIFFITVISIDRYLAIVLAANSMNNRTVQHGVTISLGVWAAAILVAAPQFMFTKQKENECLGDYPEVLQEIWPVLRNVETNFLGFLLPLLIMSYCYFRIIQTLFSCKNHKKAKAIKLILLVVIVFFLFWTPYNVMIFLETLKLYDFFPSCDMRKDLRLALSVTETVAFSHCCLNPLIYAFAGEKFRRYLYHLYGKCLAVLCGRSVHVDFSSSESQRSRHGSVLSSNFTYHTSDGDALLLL
Experimental: The activation of the CX3CR1 receptor by fractalkine can be detected using a GTPγS assay. ^35S-labelled GTPγS is added to the reaction (together with compounds and CX3CR1 CHO K1 membranes) to bind to the G-protein in the membranes instead of GTP upon activation of the receptor. Since ^35S-labelled GTPγS is non-hydrolysable the receptor will stay in its active state. The bound ^35S-labelled GTPγS is separated from free by vacuum filtration onto 96 well filters. In inhibition assay mode the receptor in the membranes will be activated with the EC80 of fractalkine and further the CX3CR1 antagonists will inhibit the signal generated by the EC80 of fractalkine.
Ligand: Fractalkine, PeproTech, cat no 300-31, 1 mg, −20° C. Diluted in dH2O+0.05% BSA to a stock concentration of 0.1 mM, Stored in −20° C.
^35S-GTPγS, Perkin Elmer (NEN), Cat no NEG030H, Specific activity 1250 Ci/mmol, 1 mCi/ml, −20° C.
Membranes: membranes are prepared inhouse from CX3CR1 CHO K1 cells purchased from Euroscreen. Protein concentration: 5.7 mg/ml, −80° C.
• HEPES: Sigma H-3375, RT • MgCl2×6H2O: Merck, cat no 5833, RT • NaCl: Merck, cat no 6404, RT • GDP: −20° C., Sigma cat no G-7127, Diluted in dH2O to a stock concentration of 10 mM. • Stored in −20° C. • Gelatine type A: Sigma, cat no G2625, 1% stock in water (heating is necessary to dissolve gelatine) made fresh on the day of the experiment RT
• Tris: Tris-HCl: Sigma, cat no T1503, RT • Tris-base: Sigma, cat no T3283, RT • MgCl2×6H2O: Merck, cat no 5833, RT • NaCl: Merck, cat no 6404, RT • Assay plates: 96 well, Nunc, 269620 • Filter: Printed Filtermat B, Wallac • Scintillator sheets: MeltiLex B, PerkinElmer
Assay plates are prepared by CMT with 1 compound/plate. 2 μl compound with the highest concentration 3.3 mM diluted with a factor 3 in 10 steps. This gives a final assay concentration of 33 μM for the highest concentration.
100 μl membranes (5 μg/well) diluted in 2× assay buffer is added to the assay plate.
100 μl ^35S-GTPγS (final assay concentration: 0.00056 μCi/μl) diluted in dH2O with EC80 of fractalkine is then added. […]
The plate is read in a microbeta. […]

[1] = system: human whole blood, adhesion to fractalkine; test: Human whole blood flow adhesion assay; type: cell-based; conditions: heparinised human whole blood, adhesion to recombinant human fractalkine under flow, 15 min preincubation
Experimental: Flow adhesion assays were performed using a microfluidics system (Cellix Microfluidics SP1.0 platform) and 8-channel biochips (Cellix Vena 8 biochips). Channel 1 was used as control and channels 2 to 8 to evaluate seven different concentrations of antagonist. To 25 monitor adhesion to fractalkine, channels were first coated with 15 μl of anti-His Tag antibody at 25 μg/ml for 2 hours. Channels were then washed three times with 15 μl DPBS to remove unbound antibody. Subsequently, 15 μl of recombinant human fractalkine at 2.5 μg/ml was added to each channel and biochips were left at 4° C. overnight in a humidified atmosphere. The following day, channels were washed three times with 15 μl DPBS prior to blocking with 15 μl of BSA at 10 mg/ml for 30 minutes. Human whole blood was obtained by venipuncture using heparin as anti-coagulant. DMSO carrier or compounds in DMSO were added to 0.3 ml blood in 1.5 ml Eppendorf tubes followed by incubation at room temperature for 15 minutes. The Vena 8 biochip was placed on a microscope stage and channels were washed with RPMI 1640 medium containing 1% BSA in preparation for the assays. […] Adhered cells were subsequently quantified using DucoCell software (Cellix).

IC50 (CX3CR1 receptor) [nM] | IC50 [1] [nM] | SMILES
9200 |  | CC(C)CC(CO)Nc1nc(SC(C)c2ccccn2)nc2[nH]c(=O)sc12 (single isomer, unassigned; isomer 2) [Example 13]
2600 |  | CC(C)C[C@H](CO)Nc1nc(SC(C)c2ccccn2)nc2[nH]c(=O)sc12 (stereo partly drawn) [Example 1, 7-[(R)-1-hydroxy-4-methylpentan-2-ylamino]-5-[1-(pyridin-2-yl)ethylthio]thiazolo[4,5-d]pyrimidin-2(3H)-one]
1000 | 2400 | CC(C)CC(CO)Nc1nc(SC(C)c2ccccn2)nc2[nH]c(=O)sc12 (single isomer, unassigned; isomer 1) [Example 12]
